Patent US11371055B2, “Herbicide resistance genes” (CORTEVA AGRISCIENCE LLC, priority 2005, dated 2022)

Legend:
[1] = system: 2P782 (Roundup Ready Control) corn; test: Herbicide tolerance of 2P782 Roundup Ready control corn in the F1 stack test; format: in vivo, Zea mays; details: 1120 g ae/ha 2,4-D DMA
From the text: (§1) AAD-12 (v1) (pDAB4101) and elite Roundup Ready inbred (BE1146RR) were reciprocally crossed and F1 seed was collected. The seed from two F1 lines were planted and treated with 70 g ae/ha imazethapyr at the V2 stage to eliminate nulls. To the surviving plants, reps were separated and either treated with 1120 g ae/ha 2,4-D DMA+70 g ae/ha imazethapyr (to confirm presence of AHAS gene) or 1120 g ae/ha 2,4-D DMA+1680 g ae/ha glyphosate (to confirm the presence of the Round Up Ready gene) in a track sprayer calibrated to 187 L/ha. Plants were graded 3 and 16 DAT.

[2] = system: F1 stack of AAD-12 (v1) (pDAB4101) and BE1146RR corn; test: Herbicide tolerance of F1 stack AAD-12 (v1) x BE1146RR corn; format: in vivo, Zea mays; details: 1120 g ae/ha 2,4-D DMA
From the text: as §1

[3] = system: R-dichlorprop habituated PHL (Petite Havana) tobacco cells; test: 2,4-D dose response of tobacco cell suspension (PHL); format: cell-based
Experimental: A dose response study was conducted with both the R-dichlorprop habituated PHL cells and the R-dichlorprop habituated BY2 cells where R-dichlorprop was substituted directly for 2,4-D in culture media. Though the focus was on PHL, a dose response was also done with BY2 in case of possible future studies, as well as to help predict the dose response for PHL. For the dichlorprop habituated PHL dose response, the levels of 2,4-D used (on LSBY2C medium with R-dichlorprop) were 0 (the control), 1, 2, 3, 5, 8, 10, 12, 15, 18, 20, 40, 60, 80, […] mg/L 2,4-D. There were four replications per concentration. For the R-dichlorprop habituated BY2 dose response, the levels of 2,4-D used (on LSBY2C medium) were 0 (the control), 1, 2, 3, 5, 8, 10, 20, 30, 40, mg/L 2,4-D.

[4] = system: AAD-12 transformed T0 corn events; test: Postemergence herbicide tolerance in T0 corn; format: in vivo, Zea mays; details: 2240 g ae/ha 2,4-D
Experimental: Four T0 events were allowed to acclimate in the greenhouse and were grown until 2-4 new, normal looking leaves had emerged from the whorl (i.e., plants had transitioned from tissue culture to greenhouse growing conditions). Plants were grown at 27° C. under 16 hour light:8 hour dark conditions in the greenhouse. Plants were then treated with commercial formulations of either Pursuit® (imazethapyr) or 2,4-D Amine 4. […] Herbicide applications were made with a track sprayer at a spray volume of 187 L/ha, 50-cm spray height. Plants were sprayed with either a lethal dose of imazethapyr (70 g ae/ha) or a rate of 2,4-D DMA salt capable of significant injury to untransformed corn lines (2240 g ac/ha). A lethal dose is defined as the rate that causes >95% injury to the Hi-II inbred. Hi-II is the genetic background of the transformants of the present invention.

[5] = system: wildtype Maverick soybeans; test: 2,4-D leaf paint (leaf flip assay) on wildtype soybean; format: in vivo, Glycine max; design: key to Leaf flip assay (18 HAT) Node N-2: 1 = Flip; 0 = No Flip
From the text: Plants that are transferred to the greenhouse can be assayed for the presence of an active PAT gene further with a non-destructive manner by painting a section of leaf of the T0 primary transformant, or progeny thereof, with a glufosinate solution [0.05-2% v/v Liberty Herbicide, preferably 0.25-1.0% (v/v),=500-2000 ppm glufosinate, Bayer Crop Science]. Depending on the concentration used, assessment for glufosinate injury can be made 1-7 days after treatment. Plants can also be tested for 2,4-D tolerance in a non-destructive manner by selective application of a 2,4-D solution in water (0.25-1% v/v commercial 2,4-D dimethylamine salt formulation, preferably 0.5% v/v=2280 ppm 2,4-D ae) to the terminal leaflet of the newly expanding trifoliolate one or two, preferably two, nodes below the youngest emerging trifolioate. […] Glyphosate resistance (in plants transformed with constructs that contain EPSPS) or another glyphosate tolerance gene can be assessed in the T1 generation by postemergence applications of glyphosate with a dose range from 280-2240 g ae/ha glyphosate. […] Individual T0 plants were assessed for the presence of the coding region of the gene of interest (AAD-12 (v1) or PAT v6) and copy number. […]
A subset of the initial transformants were assessed in the T0 generation according to the methods above. […]

[6] = system: KY160 control tobacco; test: Elevated 2,4-D DMA rates in greenhouse tobacco, sensitive control; format: in vivo, Nicotiana tabacum
From the text: T1 AAD-12 (v1) plants from an event segregating 3R:1S when selected with 560 g ai/ha Liberty using the same protocol as previously described. T1 AAD-1 (v3) seed was also planted for transformed tobacco controls (see PCT/US2005/014737). Untransformed KY160 was served as the sensitive control. Plants were sprayed using a track sprayer set to 187 L/ha at 140, 560, 2240, 8960, and 35840 g ae/ha 2,4-D DMA and rated 3 and 14 DAT.

[7] = LSBY2C medium with R-dichlorprop

Structure (SMILES)	Average % Injury 16DAT [1]	Average % Injury 16DAT ([2]; AAD-12 (v1) pDAB4101(0)003.R003.AF)	Average % Injury 16DAT ([2]; AAD-12 (v1) pDAB4101(0)005.R001.AF)	growth of PHL suspension ([3]; 10-mg/L 2,4-D)	2,4-D concentrations with growth comparable to control treatments [3, 7]	lethal concentrations of 2,4-D [3, 7]	% injury 14 DAT ([4]; T0 corn event 4101(0)003.001)	% injury 14 DAT ([4]; T0 corn event 4101(0)003.003)	% injury 14 DAT ([4]; T0 corn event 4101(0)005.001)	Leaf flip assay (18 HAT) Node N-2 ([5]; 2,4-D leaf paint, Maverick WT plants (WT-10, WT-2))	response to 2,4-D leaf painting ([5]; 2,4-D solution applied to terminal leaflet)	Average % injury 14 DAT ([6]; 2240 g ae/ha 2,4-D)	Average % injury 14 DAT ([6]; 8960 g ae/ha 2,4-D)	Average % injury 14 DAT ([6]; 35840 g ae/ha 2,4-D)
CNC.O=C(O)COc1ccc(Cl)cc1Cl [2,4-D DMA]	19%	0%	0%											
O=C(O)COc1ccc(Cl)cc1Cl [2,4-D, 2,4-dichlorophenoxyacetic acid]				slight growth	1 to 8 mg/L	above 10 mg/L	0%	0%	0%	1	did	95%	99%	100%
